Assay results reported in patent US11352350B2, “IRAK degraders and uses thereof” (Kymera Therapeutics, Inc., priority 2018, dated 2022).
Read-outs that look alike come from different tables or passages of the source.

Tests used:
IRAK4 [1] = target: T1, IRAK4 (Homo sapiens (Human), UniProt Q9NWZ3); test: Deep tandem mass tag (TMT) proteomics in OCI-LY10; type: cell-based; conditions: OCI-LY10, 8 hours
Protocol: Total protein was isolated from OCI-LY10 cells treated with 10 nM I-30, 30 nM I-30 and 30 nM 2-{2-[(cyclopropylmethyl)amino]pyridin-4-yl}-N-[3-(difluoromethyl)-1-[4-({[2-(2-{3-[3-methyl-1-(1-methyl-2,6-dioxopiperidin-3-yl)-2-oxo-2,3-dihydro-1H-1,3-benzodiazol-4-yl]propoxy}ethoxy)ethyl]amino}methyl)phenyl]-1H-pyrazol-4-yl]-1,3-oxazole-4-carboxamide for 8 hours. Vehicle (DMSO)-treated cells were used as controls. Protein lysates, 2 biological replicates per condition, were prepared at 4 C in 8M urea, 75 mM NaCl, 1 mM EDTA in 50 mM Tris HCl (pH 8), 10 mM NaF, phosphatase inhibitor cocktail 2 (1:100; Sigma, P5726) and cocktail 3 (1:100; Sigma, P0044), 2 μg/mL aprotinin (Sigma, A6103), 10 μg/mL Leupeptin (Roche, 11017101001), and 1 mM PMSF (Sigma, 78830). Lysates were spun at 20,000 rcf for 10 min and supernatant (containing extracted proteins) was transferred to a clean microcentrifuge tube. Protein concentrations were determined using the Pierce BCA assay. […] Online fractionation was performed using a nanoflow Proxeon EASY-nLC 1200 UHPLC system (Thermo Fisher Scientific) and separated peptides were analyzed on a benchtop Orbitrap Q Exactive plus mass spectrometer (Thermo Fisher Scientific). All data were analyzed using Spectrum Mill software package (Agilent Technologies). […] In total, 10,992 proteins were quantified. […]

IRAK4 [2] = target: IRAK4 (Mus musculus (Mouse), UniProt Q8R4K2); test: In vivo IRAK4 degradation in BALB/c mouse spleen (air pouch study); conditions: three PO doses; FIG. 8
Protocol: Dosing of Degrader: Mice were dosed orally at 10 mL/kg with suspensions above, giving 10 mg/kg, 30 mg/kg and 100 mg/kg final dose levels, three times at 8-hour intervals.
Termination, Cell Collection and Data: Four hours after MSU/saline injection, the mice were anesthetized and humanely exsanguinated. The spleens were removed, halved, flash frozen in labeled Eppendorf tubes in liquid nitrogen, and stored at −80° C. for determination of IRAK4 using targeted MS/MS with labeled peptide internal standard. Immediately after the bleed, 3 ml 10 U/mL heparinized saline was injected into the air pouch. The air pouch was gently massaged, the contents immediately removed, and the exudate volume recorded. After allowing the MSU crystals to settle out for fifteen minutes in an ice bath, an aliquot of the exudate was transferred to labeled Eppendorf tubes for differential white blood cell counts, including neutrophils.

SU-DHL2 = SU-DHL2 viability, CTG; type: cell-based; conditions: Homo sapiens, SU-DHL-2
IRAK4 [3] = target: T1, IRAK4; test: IRAK4 WB degradation (DC50); type: cell-based
IRAK4 [4] = target: T1, IRAK4; test: IRAK4 degradation in OCI-LY10 (DC50); type: cell-based

T1 sequence (Q9NWZ3 whole entry): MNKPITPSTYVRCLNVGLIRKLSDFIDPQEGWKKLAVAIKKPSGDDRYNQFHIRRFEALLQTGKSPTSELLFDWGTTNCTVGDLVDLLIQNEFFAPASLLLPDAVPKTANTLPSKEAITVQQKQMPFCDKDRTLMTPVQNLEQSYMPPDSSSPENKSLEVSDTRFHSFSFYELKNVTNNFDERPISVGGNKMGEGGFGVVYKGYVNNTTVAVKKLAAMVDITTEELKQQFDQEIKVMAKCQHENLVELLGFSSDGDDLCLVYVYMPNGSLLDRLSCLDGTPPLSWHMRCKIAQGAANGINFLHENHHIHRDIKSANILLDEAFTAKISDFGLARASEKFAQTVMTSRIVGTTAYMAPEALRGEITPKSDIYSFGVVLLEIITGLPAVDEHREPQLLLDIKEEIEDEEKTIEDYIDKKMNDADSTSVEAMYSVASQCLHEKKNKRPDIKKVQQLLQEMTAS
Chain of IRAK4 (Mus musculus (Mouse), UniProt Q8R4K2) (Q8R4K2 whole entry): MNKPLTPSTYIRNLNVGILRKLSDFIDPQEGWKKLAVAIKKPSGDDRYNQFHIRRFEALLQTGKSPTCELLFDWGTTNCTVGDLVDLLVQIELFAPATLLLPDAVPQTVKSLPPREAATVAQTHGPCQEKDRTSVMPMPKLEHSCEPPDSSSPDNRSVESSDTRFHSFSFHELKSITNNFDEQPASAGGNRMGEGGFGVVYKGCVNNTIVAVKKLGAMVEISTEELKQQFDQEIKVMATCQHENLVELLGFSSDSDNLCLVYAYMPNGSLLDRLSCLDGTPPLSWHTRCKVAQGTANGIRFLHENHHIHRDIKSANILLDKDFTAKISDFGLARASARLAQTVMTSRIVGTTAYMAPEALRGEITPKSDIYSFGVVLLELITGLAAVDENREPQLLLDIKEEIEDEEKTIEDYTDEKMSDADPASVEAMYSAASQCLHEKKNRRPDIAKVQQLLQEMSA

| SMILES | selectivity for IRAK4 vs. other proteins in OCI-LY10 (proteomics) (IRAK4 [1]) | IRAK4 in BALB/c mouse spleen (IRAK4 [2]) | IC50 (SU-DHL2; MYD88 MUT, read-out: SU-DHL2 CTG IC50) [nM] | IC50 (SU-DHL2; MYD88 Mutant Lines, read-out: SU-DHL2 Viability, CTG IC50) [nM] | DC50 (IRAK4 [3]) [nM] | DC50 (IRAK4 [4]; read-out: IRAK4 Degradation in OCI-LY10, DC50) [nM] | DC50 (IRAK4 [4]; read-out: IRAK4 OCI-LY10 DC50) [nM] |
| --- | --- | --- | --- | --- | --- | --- | --- |
| CN(CCCOCCCc1cccc2c1n(C)c(=O)n2C1CCC(=O)NC1=O)C[C@H]1CC[C@H](n2cc(NC(=O)c3coc(-c4ccnc(NCC5CC5)c4)n3)c(C(F)F)n2)CC1 (mixture of isomers) [I-30, 2-[2-(Cyclopropylmethylamino)-4-pyridyl]-N-[3-(difluoromethyl)-1-[4-[[3-[3-[1-(2,6-dioxo-3-piperidyl)-3-methyl-2-oxo-benzimidazol-4-yl]propoxy]propyl-methyl-amino]methyl]cyclohexyl]pyrazol-4-yl] oxazole-4-carboxamide] | highly selective for IRAK4 vs. >10,000 other proteins | in vivo degradation of IRAK4 | – | – | – | – | – |
| CN(C[C@H]1CC[C@H](n2cc(NC(=O)c3coc(-c4ccnc(NCC5CC5)c4)n3)c(C(F)F)n2)CC1)C1CCN(Cc2cccc3c2n(C)c(=O)n3C2CCC(=O)NC2=O)CC1 (stereo partly shown) [I-75, 2-(2-((cyclopropylmethyl)amino)pyridin-4-yl)-N-(3-(difluoromethyl)-1-((1r,4r)-4-(((1-((1-(2,6-dioxopiperidin-3-yl)-3-methyl-2-oxo-2,3-dihydro-1H-benzo[d]imidazol-4-yl)methyl)piperidin-4-yl)(methyl)amino)methyl)cyclohexyl)-1H-pyrazol-4-yl)oxazole-4-carboxamide] | – | – | 290 | 290 | 23 | 8 | 8 |
